Data: ChEMBL document CHEMBL3112450, “Synthesis and in vitro antitumor evaluation of primary amine substituted quinazoline linked benzimidazole” (Bioorg Med Chem Lett, 2014)

What was measured:
Type in all cases: functional
OVCAR-8 [1] = experiment: Cytotoxicity against human OVCAR8 cells assessed as growth inhibition at 10 uM after 48 hrs by SRB assay; details: OVCAR-8, 48 h, read-out: GI
HOP-92 = experiment: Cytotoxicity against human HOP92 cells assessed as cell growth at 10^-6 M after 48 hrs by SRB assay; details: HOP-92, 48 h, read-out: Activity
HCT-15 [2] = experiment: Cytotoxicity against human HCT15 cells assessed as cell growth at 10^-6 M after 48 hrs by SRB assay; details: HCT-15, 48 h, read-out: Activity
SK-MEL-5 = experiment: Cytotoxicity against human SK-MEL-5 cells assessed as cell growth at 10^-4 M after 48 hrs by SRB assay; details: SK-MEL-5, 48 h, read-out: Activity
OVCAR-8 [3] = experiment: Cytotoxicity against human OVCAR8 cells assessed as cell growth at 10^-6 M after 48 hrs by SRB assay; details: OVCAR-8, 48 h, read-out: Activity
MDA-MB-435 [4] = experiment: Cytotoxicity against human MDA-MB-435 cells after 48 hrs by SRB assay; details: MDA-MB-435, 48 h
SF-295 = experiment: Cytotoxicity against human SF295 cells assessed as cell growth at 10^-8 M after 48 hrs by SRB assay; details: SF-295, 48 h, read-out: Activity
SK-MEL-2 = experiment: Cytotoxicity against human SK-MEL-2 cells assessed as cell growth at 10^-8 M after 48 hrs by SRB assay; details: SK-MEL-2, 48 h, read-out: Activity
SW-620 = experiment: Cytotoxicity against human SW620 cells assessed as cell growth at 10^-7 M after 48 hrs by SRB assay; details: SW-620, 48 h, read-out: Activity
MDA-MB-468 = experiment: Cytotoxicity against human MDA-MB-468 cells assessed as cell growth at 10^-6 M after 48 hrs by SRB assay; details: MDA-MB-468, 48 h, read-out: Activity
HT-29 [5] = experiment: Cytotoxicity against human HT-29 cells assessed as cell growth at 10^-6 M after 48 hrs by SRB assay; details: HT-29, 48 h, read-out: Activity
DU-145 [6] = experiment: Cytotoxicity against human DU145 cells assessed as cell growth at 10^-6 M after 48 hrs by SRB assay; details: DU-145, 48 h, read-out: Activity
MDA-MB-435 [7] = experiment: Cytotoxicity against human MDA-MB-435 cells assessed as cell growth at 10^-6 M after 48 hrs by SRB assay; details: MDA-MB-435, 48 h, read-out: Activity
CCRF-CEM = experiment: Cytotoxicity against human CCRF-CEM cells after 48 hrs by SRB assay
HT-29 [8] = experiment: Cytotoxicity against human HT-29 cells assessed as cell growth at 10^-7 M after 48 hrs by SRB assay; details: HT-29, 48 h, read-out: Activity
U-251 = experiment: Cytotoxicity against human U251 cells assessed as cell growth at 10^-7 M after 48 hrs by SRB assay; details: U-251, 48 h, read-out: Activity
SR = experiment: Cytotoxicity against human SR cells assessed as cell growth at 10^-7 M after 48 hrs by SRB assay; details: read-out: Activity
CAKI-1 = experiment: Cytotoxicity against human Caki1 cells assessed as cell growth at 10^-7 M after 48 hrs by SRB assay; details: CAKI-1, 48 h, read-out: Activity
SF-539 = experiment: Cytotoxicity against human SF539 cells assessed as cell growth at 10^-4 M after 48 hrs by SRB assay; details: SF-539, 48 h, read-out: Activity
K562 = experiment: Cytotoxicity against human K562 cells after 48 hrs by SRB assay; details: K562, 48 h
M14 = experiment: Cytotoxicity against human M14 cells assessed as cell growth at 10^-6 M after 48 hrs by SRB assay; details: M14, 48 h, read-out: Activity
SK-MEL-28 [9] = experiment: Cytotoxicity against human SK-MEL-28 cells assessed as cell growth at 10^-6 M after 48 hrs by SRB assay; details: SK-MEL-28, 48 h, read-out: Activity
BT-549 [10] = experiment: Cytotoxicity against human BT549 cells assessed as cell growth at 10^-8 M after 48 hrs by SRB assay; details: BT-549, 48 h, read-out: Activity
UACC-62 = experiment: Cytotoxicity against human UACC62 cells assessed as cell growth at 10^-8 M after 48 hrs by SRB assay; details: UACC-62, 48 h, read-out: Activity
IGROV-1 = experiment: Cytotoxicity against human IGROV1 cells assessed as cell growth at 10^-4 M after 48 hrs by SRB assay; details: IGROV-1, 48 h, read-out: Activity
RXF 393 = experiment: Cytotoxicity against human RXF393 cells assessed as cell growth at 10^-7 M after 48 hrs by SRB assay; details: RXF 393, 48 h, read-out: Activity
KM12 = experiment: Cytotoxicity against human KM12 cells assessed as cell growth at 10^-6 M after 48 hrs by SRB assay; details: KM12, 48 h, read-out: Activity
SK-MEL-28 [11] = experiment: Cytotoxicity against human SK-MEL-28 cells assessed as cell growth at 10^-7 M after 48 hrs by SRB assay; details: SK-MEL-28, 48 h, read-out: Activity
A498 = experiment: Cytotoxicity against human A498 cells after 48 hrs by SRB assay; details: A498, 48 h
Malme-3M = experiment: Cytotoxicity against human MALME-3M cells assessed as cell growth at 10^-4 M after 48 hrs by SRB assay; details: read-out: Activity
LOX IMVI = experiment: Cytotoxicity against human LOXIMVI cells assessed as cell growth at 10^-8 M after 48 hrs by SRB assay; details: read-out: Activity
HCT-15 [12] = experiment: Cytotoxicity against human HCT15 cells assessed as cell growth at 10^-4 M after 48 hrs by SRB assay; details: HCT-15, 48 h, read-out: Activity
HOP-62 = experiment: Cytotoxicity against human HOP62 cells assessed as cell growth at 10^-6 M after 48 hrs by SRB assay; details: HOP-62, 48 h, read-out: Activity
BT-549 [13] = experiment: Cytotoxicity against human BT549 cells assessed as cell growth at 10^-7 M after 48 hrs by SRB assay; details: BT-549, 48 h, read-out: Activity
[14] = Cytotoxicity against human OVCAR5 cells assessed as cell growth at 10^-8 M after 48 hrs by SRB assay; details: OVCAR-5, 48 h, read-out: Activity
NCI-H23 = experiment: Cytotoxicity against human NCI-H23 cells assessed as cell growth at 10^-6 M after 48 hrs by SRB assay; details: NCI-H23, 48 h, read-out: Activity
DU-145 [15] = experiment: Cytotoxicity against human DU145 cells after 48 hrs by SRB assay; details: DU-145, 48 h
[16] = Cytotoxicity against human OVCAR4 cells assessed as cell growth at 10^-4 M after 48 hrs by SRB assay; details: OVCAR-4, 48 h, read-out: Activity

C=CCn1c(C)nc2cc(Nc3nc(NCCO)nc4ccccc34)ccc21
inhibition of growth at 10 µM (OVCAR-8 [1]): 30%

C=CCn1c(C)nc2ccc(Nc3nc(Nc4ccc5nc(C)n(CC=C)c5c4)c4ccccc4n3)cc21
growth at 1 µM (HOP-92): 70%
growth at 1 µM (HCT-15 [2]): 91%
growth at 100 µM (SK-MEL-5): -24%
growth at 1 µM (OVCAR-8 [3]): 80%
GI50 (MDA-MB-435 [4]): 1730 nM
TGI (MDA-MB-435 [4]): 3330 nM
growth at 0.01 µM (SF-295): 94%
growth at 0.01 µM (SK-MEL-2): 96%
growth at 0.1 µM (SW-620): 94%
growth at 1 µM (MDA-MB-468): 64%
growth at 1 µM (HT-29 [5]): 101%
growth at 1 µM (DU-145 [6]): 104%
growth at 1 µM (MDA-MB-435 [7]): 92%
GI50 (CCRF-CEM): 2090 nM
LC50 (CCRF-CEM): > 100000 nM
growth at 0.1 µM (HT-29 [8]): 101%
growth at 0.1 µM (U-251): 94%
growth at 0.1 µM (SR): 93%
growth at 0.1 µM (CAKI-1): 90%
growth at 100 µM (SF-539): -61%
GI50 (K562): 1420 nM
LC50 (concentration killing 50% of cells) (K562): > 100000 nM
growth at 1 µM (M14): 88%
growth at 1 µM (SK-MEL-28 [9]): 102%
growth at 0.01 µM (BT-549 [10]): 99%
growth at 0.01 µM (UACC-62): 96%
growth at 100 µM (IGROV-1): -25%
growth at 0.1 µM (RXF 393): 96%
growth at 1 µM (KM12): 89%
growth at 0.1 µM (SK-MEL-28 [11]): 95%
GI50 (A498): 442 nM
TGI (A498): 2080 nM
growth at 100 µM (Malme-3M): -5%
growth at 0.01 µM (LOX IMVI): 91%
growth at 100 µM (HCT-15 [12]): -15%
growth at 1 µM (HOP-62): 90%
growth at 0.1 µM (BT-549 [13]): 95%
growth at 0.01 µM [14]: 95%
growth at 1 µM (NCI-H23): 93%
GI50 (DU-145 [15]): 1850 nM
LC50 (50% lethal concentration) (DU-145 [15]): 5790 nM
TGI (DU-145 [15]): 3270 nM
growth at 100 µM [16]: -43%

C=CCn1c(C)nc2cc(Nc3nc(Nc4ccc5nc(C)n(CC=C)c5c4)c4ccccc4n3)ccc21
growth at 1 µM (HOP-92): 45%
growth at 1 µM (HCT-15 [2]): 12%
growth at 100 µM (SK-MEL-5): -37%
growth at 1 µM (OVCAR-8 [3]): -11%
GI50 (MDA-MB-435 [4]): 532 nM
TGI (MDA-MB-435 [4]): 1820 nM
growth at 0.01 µM (SF-295): 90%
growth at 0.01 µM (SK-MEL-2): 96%
growth at 0.1 µM (SW-620): 98%
growth at 1 µM (MDA-MB-468): -28%
growth at 1 µM (HT-29 [5]): -87%
growth at 1 µM (DU-145 [6]): 18%
growth at 1 µM (MDA-MB-435 [7]): 32%
GI50 (CCRF-CEM): 296 nM
LC50 (CCRF-CEM): > 100000 nM
TGI (CCRF-CEM): 769 nM
growth at 0.1 µM (HT-29 [8]): 103%
growth at 0.1 µM (U-251): 95%
growth at 0.1 µM (SR): 89%
growth at 0.1 µM (CAKI-1): 97%
growth at 100 µM (SF-539): -94%
GI50 (K562): 218 nM
growth at 1 µM (M14): 72%
growth at 1 µM (SK-MEL-28 [9]): 104%
growth at 0.01 µM (BT-549 [10]): 100%
growth at 0.01 µM (UACC-62): 97%
growth at 100 µM (IGROV-1): -43%
growth at 0.1 µM (RXF 393): 88%
growth at 1 µM (KM12): -40%
growth at 0.1 µM (SK-MEL-28 [11]): 106%
GI50 (A498): 1660 nM
LC50 (A498): 5500 nM
TGI (A498): 3030 nM
growth at 100 µM (Malme-3M): -42%
growth at 0.01 µM (LOX IMVI): 95%
growth at 100 µM (HCT-15 [12]): 2%
growth at 1 µM (HOP-62): -34%
growth at 0.1 µM (BT-549 [13]): 101%
growth at 0.01 µM [14]: 93%
growth at 1 µM (NCI-H23): 100%
GI50 (DU-145 [15]): 402 nM
LC50 (50% lethal concentration) (DU-145 [15]): 3760 nM
TGI (DU-145 [15]): 1410 nM
growth at 100 µM [16]: -29%
